# “And” between values parts separate entries of the source, which are not always exact repeats. Identical values can stand only once.
# What was measured:
# Assay type in all cases: cell-based
# IKZF1 Ikaros [1] = target: T1, IKZF1 Ikaros (Homo sapiens, UniProt Q13422+Q96SW2); assay: Human Regulatory T Cell Degradation Assay; design: Foxp3-BV421, HELIOS-PE-Cy7, EOS-PE, IKAROS-PECF594, AIOLOS-AF647; endogenous in cells; host or cells: human PBMC from healthy donors (CD8+ T cells gated by flow cytometry); conditions: human regulatory T cells, 20 hours; for DC50: vs DMSO alone
# IKZF2 Helios [2] = target: T2, IKZF2 Helios (Homo sapiens, UniProt Q96SW2+Q9UKS7); assay: Human Regulatory T Cell Reprogramming Assay; design: endogenous in cells; host or cells: primary human CD4+CD127lowCD25+ Treg cells from healthy leukopaks; conditions: CD4+CD127lowCD25+ Treg cells; for IKZF2 Helios max % deg. observed: 12-13 days with compound; for DC50: 12-13 days, vs DMSO alone
# Method: Human CD4^+ T cells were isolated from fresh healthy leukopaks (Stemcell Technologies) using the RosetteSep Human CD4^+ T cell enrichment cocktail (Stemcell Technologies) and Ficoll density gradient centrifugation. Leukopaks were diluted with an equal volume of phosphate-buffered saline (PBS [Gibco]) supplemented with 2% fetal bovine serum (FBS, VWR Lifescience) and incubated with RosetteSep Human CD4^+ T cell enrichment cocktail for 20 minutes before layering on Ficoll-Paque Plus solution (GE Health Care). The cell-rich interface layer was harvested and washed twice with PBS supplemented with 2% FBS. Regulatory T cells were then isolated manually using the EasySep Human CD4^+CD127^lowCD25^+ Regulatory T cell isolation kit (Stemcell Technologies) according to the manufacturer's instructions. Cells were rested overnight in Roswell Park Memorial Institute (RPMI) 1640 media (Gibco) supplemented with 10% FBS, Pen/Strep (Gibco), MEM-NEAA (Gibco), and sodium pyruvate (Gibco) in a humidified incubator (37 °C, 5% CO2). Cells were then stained for CD4 (clone: RPA-T4, Biolegend), CD25 (clone: 2A3, BD Biosciences), and CD127 (clone: hIL-7R-M21, BD Biosciences). CD4^+CD127^lowCD25^+ cells were sorted on a BD FACS Aria Fusion sorter to a purity of 95%) or greater. Sorted cells were immediately used or cryopreserved for downstream assays.
# Fresh or cryopreserved FACS-sorted CD4^+CD127^lowCD25^+ Treg cells were cultured at 25,000-50,000 cells/well of 96-well round bottom plates in RPMI 1640 media (Gibco) supplemented with 10% FBS, Pen/Strep (Gibco), MEM-NEAA (Gibco), and sodium pyruvate (Gibco). Cells were stimulated with Treg Xpander beads (Thermo Fisher) at cells-to-beads ratio of 1:4 in the presence of 500 U/mL recombinant human IL-2 (Proleukin). Compounds were added at titrated doses and cells were incubated at 37 °C, 5% CO2 for 12-13 days. Recombinant human IL-2 and compound were replenished every 2-3 days during the entire culture duration. On day 12 or 13, cells were restimulated with phorbol 12-myristate 13-acetate (PMA,) and ionomycin in the presence of the protein transport inhibitors brefeldin A and monensin (eBioscience Cell Stimulation Cocktail plus protein transport inhibitors, 500x, Catalog number 00-4975-93) before proceeding with flow cytometry staining and analysis.
# For flow cytometry staining, cells were washed twice with flow cytometry staining buffer (Thermo Fisher) and incubated in Human Tru-stain Fc block (Biolegend) for 10 minutes before adding eFluor780 viability dye (Thermo Fisher) and surface marker antibody cocktail for 30 minutes at 4 °C. Cells were then fixed and permeabilized by incubation with FoxP3 transcription factor staining buffer (Thermo Fisher) for 30 minutes at 4 °C as per the kit manufacturer's instructions. Cells were washed twice with the Perm/Wash buffer supplied in the kit as per the manufacturer's instructions and incubated overnight at 4 °C with an intracellular antibody cocktail comprised of antibodies specific for the transcription factors shown in Table C. Cells were washed twice with Perm/Wash buffer and resuspended in flow cytometry staining buffer (Thermo Fisher) prior to acquisition. Sample acquisition and analysis was performed using a BD LSRFortessa (BD Biosciences) flow cytometer. Single stain controls for each fluorochrome were prepared using UltraComp eBead Compensation Beads (Thermo Fisher). Data were analyzed using FlowJo version 10 and GraphPad Prism Software. TABLE C
# IKZF1 Ikaros [3] = target: T1, IKZF1 Ikaros; assay: Jurkat Cellular Degradation Assay; design: fluorescently labelled antibodies against Helios, Ikaros and Aiolos; endogenous in cells; host or cells: Jurkat cells; conditions: Jurkat cells, 24 h; for DC50: 50% reduction of protein vs DMSO alone; for IKZF1 Ikaros max % deg. observed: 100% = complete degradation
# Method: (§1) Jurkat cells were plated at 80,000 cells/well in 40 µL RPMI + 10% FBS in a 384-well cell culture plate prior to using acoustic dispensing technology for adding a compound of interest. Cell cultures were incubated for 24 h at 37 °C and 5% CO2. In order to facilitate analysis, cell cultures were spun down at 200 rpm for 5 min and the supernatant was discarded. After shaking the plate to dislodge the cell pellet, cells were resuspended in 50 µL of Fixation Buffer (eBioscience FoxP3 buffer set 00-5523-00) for 60 min at room temperature. After centrifuging and discarding the supernatant, cells were permeabilized with 50 µL of Permeabilization buffer (eBioscience FoxP3 buffer set 00-5523-00) for 10 min at room temperature. Following permeabilization, cells were spun down and the supernatant was replaced with 20 µL fluorescently labelled antibodies against Helios, Ikaros and Aiolos or corresponding Isotype controls in 1× Permeabilization buffer (Ikaros-Alexa488 [Biolegend, Cat #368408, 1:50], Helios-PE [CST, Cat #29360, 1:50]. Aiolos-Alexa647 [Biolegend, Cat #371106 Biolegend, 1:25]) and staining reactions were incubated for 1 h at room temperature while protected from light. Subsequently, 30 µL of 1× Permeabilization buffer was added prior to centrifuging the cells and discarding the supernatant. Stained cells were resuspended in 25 µL of flow cytometry staining buffer [PBS + 0.2% bovine serum albumin (BSA)] and analyzed using an Intellicyt Ique Plus flow cytometer. TABLE A-1
# IKZF2 Helios [4] = target: T2, IKZF2 Helios; assay: Jurkat Cellular Degradation Assay; design: fluorescently labelled antibodies against Helios, Ikaros and Aiolos; endogenous in cells; host or cells: Jurkat cells; conditions: for DC50: 50% reduction of protein vs DMSO alone; for IKZF2** Helios max % deg. observed: Table E summary, Jurkat Cellular Degradation Assay (A-1)
# Method: as §1
# IKZF3 Aiolos = IKZF3 Aiolos (Homo sapiens, UniProt Q96SW2+Q9UKT9); assay: Jurkat Cellular Degradation Assay; design: fluorescently labelled antibodies against Helios, Ikaros and Aiolos; endogenous in cells; host or cells: Jurkat cells; conditions: Jurkat cells, 24 h; for DC50: 50% reduction of protein vs DMSO alone; for IKZF3 Aiolos max % deg. observed: 100% = complete degradation
# Method: as §1
# T2 sequence (Q9UKS7 whole entry): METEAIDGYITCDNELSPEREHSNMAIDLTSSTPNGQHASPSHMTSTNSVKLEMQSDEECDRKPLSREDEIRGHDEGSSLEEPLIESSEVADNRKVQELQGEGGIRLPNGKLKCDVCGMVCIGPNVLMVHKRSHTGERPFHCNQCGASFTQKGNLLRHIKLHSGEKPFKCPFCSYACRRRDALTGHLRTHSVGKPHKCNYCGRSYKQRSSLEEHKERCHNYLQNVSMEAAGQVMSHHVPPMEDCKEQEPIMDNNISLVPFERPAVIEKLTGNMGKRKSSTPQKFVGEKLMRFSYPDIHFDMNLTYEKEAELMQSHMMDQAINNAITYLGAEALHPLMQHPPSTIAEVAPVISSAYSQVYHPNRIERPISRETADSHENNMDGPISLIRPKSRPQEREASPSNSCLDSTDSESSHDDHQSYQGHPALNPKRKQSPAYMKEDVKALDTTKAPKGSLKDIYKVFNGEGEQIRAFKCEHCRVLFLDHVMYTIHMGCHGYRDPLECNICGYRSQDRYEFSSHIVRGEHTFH
# T2 sequence (Q96SW2 whole entry): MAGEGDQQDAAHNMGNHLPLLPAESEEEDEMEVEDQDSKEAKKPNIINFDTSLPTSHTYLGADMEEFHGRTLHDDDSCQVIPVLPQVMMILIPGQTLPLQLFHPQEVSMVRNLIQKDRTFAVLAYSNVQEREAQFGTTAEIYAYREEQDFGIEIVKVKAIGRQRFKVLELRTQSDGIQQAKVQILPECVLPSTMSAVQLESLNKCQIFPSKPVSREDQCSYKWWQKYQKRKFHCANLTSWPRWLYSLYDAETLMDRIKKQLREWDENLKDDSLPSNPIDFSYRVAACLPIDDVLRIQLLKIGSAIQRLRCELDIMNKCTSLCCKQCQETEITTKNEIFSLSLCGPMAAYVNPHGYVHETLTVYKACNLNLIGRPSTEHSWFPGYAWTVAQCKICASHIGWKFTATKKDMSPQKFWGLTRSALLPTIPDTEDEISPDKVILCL
# T2 sequence (Q16531 whole entry partner): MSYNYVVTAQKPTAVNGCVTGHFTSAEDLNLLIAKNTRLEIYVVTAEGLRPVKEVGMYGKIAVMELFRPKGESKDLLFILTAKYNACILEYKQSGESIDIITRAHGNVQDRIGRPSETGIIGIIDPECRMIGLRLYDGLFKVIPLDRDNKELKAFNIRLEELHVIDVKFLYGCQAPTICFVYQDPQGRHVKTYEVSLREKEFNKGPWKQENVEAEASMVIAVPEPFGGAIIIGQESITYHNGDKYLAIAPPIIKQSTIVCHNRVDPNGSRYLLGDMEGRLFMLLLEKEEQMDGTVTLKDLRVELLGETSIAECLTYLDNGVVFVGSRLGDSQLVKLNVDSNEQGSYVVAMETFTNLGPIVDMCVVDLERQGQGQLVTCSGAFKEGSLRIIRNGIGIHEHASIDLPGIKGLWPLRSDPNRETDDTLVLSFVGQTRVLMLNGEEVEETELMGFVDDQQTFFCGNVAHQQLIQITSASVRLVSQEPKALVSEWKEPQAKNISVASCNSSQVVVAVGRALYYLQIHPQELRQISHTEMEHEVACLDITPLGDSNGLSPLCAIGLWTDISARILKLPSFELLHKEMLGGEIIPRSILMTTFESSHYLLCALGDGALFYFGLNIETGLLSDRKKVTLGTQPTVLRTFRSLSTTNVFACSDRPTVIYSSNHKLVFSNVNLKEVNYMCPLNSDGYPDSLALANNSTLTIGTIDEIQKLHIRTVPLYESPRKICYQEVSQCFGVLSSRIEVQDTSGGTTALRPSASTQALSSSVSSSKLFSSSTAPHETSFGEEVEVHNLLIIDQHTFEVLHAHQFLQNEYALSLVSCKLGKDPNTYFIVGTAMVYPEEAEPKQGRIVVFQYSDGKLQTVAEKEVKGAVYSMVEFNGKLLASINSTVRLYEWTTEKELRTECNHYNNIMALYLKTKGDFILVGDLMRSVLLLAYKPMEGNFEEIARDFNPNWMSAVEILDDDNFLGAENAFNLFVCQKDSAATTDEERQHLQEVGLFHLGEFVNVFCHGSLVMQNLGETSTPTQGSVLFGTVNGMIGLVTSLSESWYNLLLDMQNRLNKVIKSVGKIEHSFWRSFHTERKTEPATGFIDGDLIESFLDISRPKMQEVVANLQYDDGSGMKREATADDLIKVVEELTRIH
# T1 sequence (Q13422 whole entry): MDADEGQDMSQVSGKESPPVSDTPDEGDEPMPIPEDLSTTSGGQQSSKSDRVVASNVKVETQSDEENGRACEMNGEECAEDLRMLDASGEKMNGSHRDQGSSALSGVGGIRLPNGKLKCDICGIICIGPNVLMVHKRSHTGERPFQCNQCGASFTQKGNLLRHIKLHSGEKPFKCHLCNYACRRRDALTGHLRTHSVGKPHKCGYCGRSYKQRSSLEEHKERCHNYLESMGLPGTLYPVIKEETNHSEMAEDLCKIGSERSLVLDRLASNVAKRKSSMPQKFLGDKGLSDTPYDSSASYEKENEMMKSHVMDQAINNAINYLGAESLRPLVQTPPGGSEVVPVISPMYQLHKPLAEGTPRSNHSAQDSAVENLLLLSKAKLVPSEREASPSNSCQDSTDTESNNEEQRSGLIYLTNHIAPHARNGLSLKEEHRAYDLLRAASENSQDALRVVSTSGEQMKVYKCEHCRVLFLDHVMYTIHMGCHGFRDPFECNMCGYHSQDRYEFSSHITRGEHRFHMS
# T1 sequence (Q96SW2 whole entry): as the sequence (Q96SW2 whole entry) above
# T1 sequence (Q16531 whole entry partner): as the sequence (Q16531 whole entry partner) above
# Sequence of IKZF3 Aiolos (Q9UKT9 whole entry): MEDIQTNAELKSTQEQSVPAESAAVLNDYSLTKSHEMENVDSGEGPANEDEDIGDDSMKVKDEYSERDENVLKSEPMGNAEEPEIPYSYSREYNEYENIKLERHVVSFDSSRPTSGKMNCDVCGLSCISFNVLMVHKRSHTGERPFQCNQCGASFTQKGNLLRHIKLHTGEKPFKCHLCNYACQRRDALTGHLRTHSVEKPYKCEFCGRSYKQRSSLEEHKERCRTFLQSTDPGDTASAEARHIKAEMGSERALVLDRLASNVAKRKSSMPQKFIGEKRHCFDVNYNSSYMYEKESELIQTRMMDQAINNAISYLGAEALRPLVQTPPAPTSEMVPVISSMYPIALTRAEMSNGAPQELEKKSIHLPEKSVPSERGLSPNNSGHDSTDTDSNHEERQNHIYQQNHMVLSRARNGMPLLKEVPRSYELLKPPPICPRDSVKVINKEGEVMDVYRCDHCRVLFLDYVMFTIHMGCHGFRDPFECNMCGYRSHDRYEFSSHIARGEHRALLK
# Sequence of IKZF3 Aiolos (Q96SW2 whole entry): as the sequence (Q96SW2 whole entry) above
# Sequence of IKZF3 Aiolos (Q16531 whole entry partner): as the sequence (Q16531 whole entry partner) above
Structure (SMILES),IKZF1 Ikaros max % deg. observed (IKZF1 Ikaros [1]) [%],DC50 (IKZF1 Ikaros [1]) [nM],IKZF2 Helios max % deg. observed (IKZF2 Helios [2]) [%],DC50 (IKZF2 Helios [2]) [nM],DC50 (IKZF1 Ikaros [3]) [nM],"DC50 (IKZF2 Helios [4]; Jurkat cells, 24 h) [nM]",IKZF2** Helios max % deg. observed (IKZF2 Helios [4]) [%],DC50 (IKZF3 Aiolos) [nM],IKZF1 Ikaros max % deg. observed (IKZF1 Ikaros [3]),IKZF3 Aiolos max % deg. observed (IKZF3 Aiolos),"IKZF2 Helios max % deg. observed (IKZF2 Helios [4]; Jurkat cells, 24 h, 100% = complete degradation) [%]"
"CO[C@H]1C[C@H](Oc2c(C)cc(-c3ccc(-c4cn(C5CCC(=O)NC5=O)c(=O)o4)c(F)c3)nc2N)C1 (relative stereo) [Example 2, trans 3-(5-(4-(6-amino-5-(3-methoxycyclobutoxy)-4-methylpyridin-2-yl)-2-fluorophenyl)-2-oxooxazol-3(2H)-yl)piperidine-2,6-dione]",56,950,74,205,4380,37,92,2320,–,–,–
"O=C1CCC(n2cc(-c3ccccc3)oc2=O)C(=O)N1 (stereo not drawn) [Comparative Compound A, 3-(2-oxo-5-phenyloxazol-3(2H)-yl)piperidine-2,6-dione, reference compound]",–,–,1,> 1000,1520,> 10000,27,> 10000,70%,52%,–
"O=C1CCC(n2cc(-c3ccc(Br)cc3F)oc2=O)C(=O)N1 (stereo not drawn) [Comparative Compound B, 3-(5-(4-bromo-2-fluorophenyl)-2-oxooxazol-3(2H)-yl)piperidine-2,6-dione, reference compound]",–,–,6,> 1000,> 10000,> 10000,11,> 10000,24%,25%,–
"COC1CCN(Cc2ccc(-c3ccc(-c4cn(C5CCC(=O)NC5=O)c(=O)o4)c(F)c3)nc2N)CC1 (stereo not drawn) [Example 4, 3-(5-(4-(6-amino-5-((4-methoxypiperidin-1-yl)methyl)pyridin-2-yl)-2-fluorophenyl)-2-oxooxazol-3(2H)-yl)piperidine-2,6-dione]",67,3790,66,155,1200,34,91,3010,69%,61%,–

# The remaining compounds from weak to strong by DC50 (IKZF1 Ikaros [3]), led by results:
IKZF1 Ikaros max % deg. observed (IKZF1 Ikaros [1]) [%],DC50 (IKZF1 Ikaros [1]) [nM],IKZF2 Helios max % deg. observed (IKZF2 Helios [2]) [%],DC50 (IKZF2 Helios [2]) [nM],DC50 (IKZF1 Ikaros [3]) [nM],"DC50 (IKZF2 Helios [4]; Jurkat cells, 24 h) [nM]",IKZF2** Helios max % deg. observed (IKZF2 Helios [4]) [%],DC50 (IKZF3 Aiolos) [nM],IKZF1 Ikaros max % deg. observed (IKZF1 Ikaros [3]),IKZF3 Aiolos max % deg. observed (IKZF3 Aiolos),"IKZF2 Helios max % deg. observed (IKZF2 Helios [4]; Jurkat cells, 24 h, 100% = complete degradation) [%]",Structure (SMILES)
52,6500,–,–,7900,50,92,> 10000,51%,38%,92,"Cc1cc(-c2ccc(-c3cn(C4CCC(=O)NC4=O)c(=O)o3)c(F)c2)nc(N)c1COC1CCOCC1 (stereo not drawn) [Example 5, 3-(5-(4-(6-Amino-4-methyl-5-(((tetrahydro-2H-pyran-4-yl)oxy)methyl)pyridin-2-yl)-2-fluorophenyl)-2-oxooxazol-3(2H)-yl)piperidine-2,6-dione]"
58,6470,73,247,5600,36,92,9490,64% and 57%,48% and 54%,–,"Cc1cc(-c2ccc(-c3cn(C4CCC(=O)NC4=O)c(=O)o3)c(F)c2)nc(N)c1NCC1CCOCC1 (stereo not drawn) [Example 3, 3-(5-(4-(6-amino-4-methyl-5-(((tetrahydro-2H-pyran-4-yl)methyl)amino)pyridin-2-yl)-2-fluorophenyl)-2-oxooxazol-3(2H)-yl)piperidine-2,6-dione]"
51,8230,72,45,1510,22,89,600,63%,55%,–,"CC1(C)Cc2cc(-c3ccc(-c4cn(C5CCC(=O)NC5=O)c(=O)o4)c(F)c3)nc(N)c2O1 (stereo not drawn) [Example 1, 3-(5-(4-(7-amino-2,2-dimethyl-2,3-dihydrofuro[2,3-c]pyridin-5-yl)-2-fluorophenyl)-2-oxooxazol-3(2H)-yl)piperidine-2,6-dione]"

# Source: EP4568957B1, “SUBSTITUTED PHENYL OXOOXAZOLYL PIPERIDINE DIONE COMPOUNDS” (Bristol-Myers Squibb Company, priority 2023, dated 2025)
